Data taken from US20190307843A1, “SINGLE DOSE METHODS FOR PREVENTING AND TREATING FUNGAL INFECTIONS” (Cidara Therapeutics, Inc., priority 2016, published 2019).
Read-outs that look alike come from different tables or passages of the source.

System: Candida auris strains
Experiment: Candida auris antifungal susceptibility testing (CLSI M27-A3), 38 strains
Assay type: cell-based
Conditions: for MIC: Candidozyma auris, read-out: MIC

CC[C@H](C)C[C@H](C)CCCCCCCCC(=O)N[C@H]1C[C@@H](O)[C@@H](NCCN)NC(=O)[C@@H]2[C@@H](O)CCN2C(=O)[C@H]([C@H](O)CCN)NC(=O)[C@H]([C@H](O)[C@@H](O)c2ccc(O)cc2)NC(=O)[C@@H]2C[C@@H](O)CN2C(=O)[C@H]([C@@H](C)O)NC1=O [CAS, caspofungin]
4 µg/mL: MIC (24 h, strain 30 VCPI 471a/P/14, 24 h)
2 µg/mL: MIC (48 h, strain 31 VCPI 478/P/14, 48 h)
4: number of resistant isolates (of 38 C. auris isolates)
0.125 µg/mL: MIC (24 h, strain 26 VCPI 266/P/14, 24 h) | MIC (24 h, strain 29 VCPI 467/P/14, 24 h) | MIC (24 h, strain 33 VCPI 550/P/14, 24 h) | MIC (48 h, strain 26 VCPI 266/P/14, 48 h)
1 µg/mL: MIC (24 h, strain 7 VCPI 471/P/13, 24 h) | MIC (24 h, strain 22 VCPI 513/P/14, 24 h) | MIC (24 h, strain 31 VCPI 478/P/14, 24 h) | MIC (48 h, strain 17 VCPI 105/P/14, 48 h) | MIC (48 h, strain 21 VCPI 512/P/14, 48 h) | MIC (48 h, strain 23 VCPI 514/P/14, 48 h)
> 16 µg/mL: MIC (48 h, strain 1 VPCI 669/P/12, 48 h) | MIC (48 h, strain 2 VCPI 671/P/12, 48 h) | MIC (48 h, strain 4 VCPI 683/P/12, 48 h) | MIC (48 h, strain 5 VCPI 692/P/12, 48 h) | MIC (48 h, strain 7 VCPI 471/P/13, 48 h) | MIC (48 h, strain 9 VCPI 478/P/13, 48 h) | MIC (48 h, strain 10 VCPI 479/P/13, 48 h) | MIC (48 h, strain 11 VCPI 480/P/13, 48 h) | MIC (48 h, strain 12 VCPI 482/P/13, 48 h) | MIC (48 h, strain 16 VCPI 1133/P/13, 48 h) | MIC (48 h, strain 19 VCPI 510/P/14, 48 h) | MIC (48 h, strain 20 VCPI 511/P/14, 48 h) | MIC (48 h, strain 22 VCPI 513/P/14, 48 h) | MIC (48 h, strain 25 VCPI 265/P/14, 48 h) | MIC (48 h, strain 27 VCPI 462/P/14, 48 h) | MIC (48 h, strain 30 VCPI 471a/P/14, 48 h) | MIC (48 h, strain 34 VCPI 714/P/14, 48 h) | MIC (48 h, strain 35 VCPI 717/P/14, 48 h) | MIC (48 h, strain 36 VCPI 1060/P/14, 48 h) | MIC (48 h, strain 37 VCPI 74/P/15, 48 h) | MIC (48 h, strain 38 VCPI 213/P/15, 48 h)
0.5 µg/mL: MIC (24 h, strain 10 VCPI 479/P/13, 24 h) | MIC (24 h, strain 11 VCPI 480/P/13, 24 h) | MIC (24 h, strain 12 VCPI 482/P/13, 24 h) | MIC (24 h, strain 14 VCPI 1130/P/13, 24 h) | MIC (24 h, strain 15 VCPI 1132/P/13, 24 h) | MIC (24 h, strain 17 VCPI 105/P/14, 24 h) | MIC (24 h, strain 19 VCPI 510/P/14, 24 h) | MIC (24 h, strain 20 VCPI 511/P/14, 24 h) | MIC (24 h, strain 21 VCPI 512/P/14, 24 h) | MIC (24 h, strain 23 VCPI 514/P/14, 24 h) | MIC (24 h, strain 24 VCPI 250/P/14, 24 h) | MIC (24 h, strain 28 VCPI 463/P/14, 24 h) | MIC (24 h, strain 32 VCPI 518/P/14, 24 h) | MIC (24 h, strain 34 VCPI 714/P/14, 24 h) | MIC (24 h, strain 35 VCPI 717/P/14, 24 h) | MIC (24 h, strain 36 VCPI 1060/P/14, 24 h) | MIC (24 h, strain 37 VCPI 74/P/15, 24 h) | MIC (24 h, strain 38 VCPI 213/P/15, 24 h) | MIC (48 h, strain 14 VCPI 1130/P/13, 48 h) | MIC (48 h, strain 15 VCPI 1132/P/13, 48 h) | MIC (48 h, strain 18 VCPI 107/P/14, 48 h) | MIC (48 h, strain 24 VCPI 250/P/14, 48 h) | MIC (48 h, strain 28 VCPI 463/P/14, 48 h) | MIC (48 h, strain 29 VCPI 467/P/14, 48 h)
16 µg/mL: MIC (24 h, strain 16 VCPI 1133/P/13, 24 h) | MIC (48 h, strain 32 VCPI 518/P/14, 48 h)
0.25 µg/mL: MIC (24 h, strain 1 VPCI 669/P/12, 24 h) | MIC (24 h, strain 2 VCPI 671/P/12, 24 h) | MIC (24 h, strain 3 VCPI 674/P/12, 24 h) | MIC (24 h, strain 4 VCPI 683/P/12, 24 h) | MIC (24 h, strain 5 VCPI 692/P/12, 24 h) | MIC (24 h, strain 6 VCPI 712/P/12, 24 h) | MIC (24 h, strain 8 VCPI 475/P/13, 24 h) | MIC (24 h, strain 9 VCPI 478/P/13, 24 h) | MIC (24 h, strain 13 VCPI 483/P/13, 24 h) | MIC (24 h, strain 18 VCPI 107/P/14, 24 h) | MIC (48 h, strain 3 VCPI 674/P/12, 48 h) | MIC (48 h, strain 6 VCPI 712/P/12, 48 h) | MIC (48 h, strain 8 VCPI 475/P/13, 48 h) | MIC (48 h, strain 13 VCPI 483/P/13, 48 h) | MIC (48 h, strain 33 VCPI 550/P/14, 48 h)
8 µg/mL: MIC (24 h, strain 25 VCPI 265/P/14, 24 h) | MIC (24 h, strain 27 VCPI 462/P/14, 24 h)
